# Assay results published in patent US7576215B2, “Quinolines and pharmaceutical compositions thereof” (Wyeth, priority 2003, dated 2009).
row,melting point [°C],SMILES
1,136 to 138,"CCc1ccc(N(C)C(=O)c2cnc3c(C(F)(F)F)cccc3c2-c2ccccc2)cc1 [Example 385, N-(4-ETHYLPHENYL)-N-METHYL-4-PHENYL-8-(TRIFLUOROMETHYL)QUINOLINE-3-CARBOXAMIDE]"
2,144 to 146,"CCc1cccc(N(C)C(=O)c2cnc3c(C(F)(F)F)cccc3c2-c2ccccc2)c1 [Example 386, N-(3-ETHYLPHENYL)-N-METHYL-4-PHENYL-8-(TRIFLUOROMETHYL)QUINOLINE-3-CARBOXAMIDE]"
3,155 to 157,"O=C(Nc1cccc(C(F)(F)F)c1)c1cnc2c(C(F)(F)F)cccc2c1-c1ccccc1 [Example 371, 4-PHENYL-8-(TRIFLUOROMETHYL)-N-[3-(TRIFLUOROMETHYL)PHENYL]QUINOLINE-3-CARBOXAMIDE]"
4,177 to 179,"CN(C(=O)c1cnc2c(C(F)(F)F)cccc2c1-c1ccccc1)c1ccc(Cl)cc1 [Example 383, N-(4-CHLOROPHENYL)-N-METHYL-4-PHENYL-8-(TRIFLUOROMETHYL)QUINOLINE-3-CARBOXAMIDE]"
5,203 to 205,"Cc1ccc(NC(=O)c2cnc3c(C(F)(F)F)cccc3c2-c2ccccc2)cc1 [Example 368, N-(4-METHYLPHENYL)-4-PHENYL-8-(TRIFLUOROMETHYL)QUINOLINE-3-CARBOXAMIDE]"
6,218 to 220,"Cc1ccccc1-c1cnc2c(C(F)(F)F)cccc2c1-c1cccc(NC(=O)Nc2ccccc2F)c1 [Example 573, N-(2-FLUOROPHENYL)-N′-{3-[3-(2-METHYLPHENYL)-8-(TRIFLUOROMETHYL)QUINOLIN-4-YL]PHENYL}UREA]"
7,85,"Oc1ccc(F)c(-c2c(-c3ccccc3)cnc3c(C(F)(F)F)cccc23)c1 [Example 412, 4-FLUORO-3-[3-PHENYL-8-(TRIFLUOROMETHYL)QUINOLIN-4-YL]PHENOL]"
8,153 to 155,"O=C(Nc1ccc(Cl)cc1)c1cnc2c(C(F)(F)F)cccc2c1-c1ccccc1 [Example 372, N-(4-CHLOROPHENYL)-4-PHENYL-8-(TRIFLUOROMETHYL)QUINOLINE-3-CARBOXAMIDE]"
9,174 to 176,"Cc1cccc(N(C)C(=O)c2cnc3c(C(F)(F)F)cccc3c2-c2ccccc2)c1 [Example 379, N-METHYL-N-(3-METHYLPHENYL)-4-PHENYL-8-(TRIFLUOROMETHYL)QUINOLINE-3-CARBOXAMIDE]"
10,122,"O=C(O)Cc1ccc(COc2cccc(-c3c(-c4ccccc4)cnc4c(C(F)(F)F)cccc34)c2)cc1 [Example 398, [4-({3-[3-PHENYL-8-(TRIFLUOROMETHYL)QUINOLIN-4-YL]PHENOXY}METHYL)PHENYL]ACETIC ACID]"
11,171 to 173,"O=C(Nc1cccc(F)c1)c1cnc2c(C(F)(F)F)cccc2c1-c1ccccc1 [Example 377, N-(3-FLUOROPHENYL)-4-PHENYL-8-(TRIFLUOROMETHYL)QUINOLINE-3-CARBOXAMIDE]"
12,172 to 174,"COc1cc(-c2c(-c3ccccc3)cnc3c(C(F)(F)F)cccc23)ccc1Cl [Example 393, 4-(4-CHLORO-3-METHOXYPHENYL)-3-PHENYL-8-(TRIFLUOROMETHYL)QUINOLINE]"
13,149 to 151,COC(=O)/C=C/c1ccc(COc2cc(-c3c(-c4ccccc4)cnc4c(C(F)(F)F)cccc34)ccc2Cl)cc1
